Experimental data from patent US7846973B2, “Chemical process and new crystalline form” (Theravance, Inc., priority 2004, dated 2010).
Structures can show the parent of a compound that is named as a salt.

Experiment: Relative thermodynamic stability of crystalline forms of compound (Ia) monohydrochloride
Format: physicochemical
Conditions: Form 2 versus Form 1 (form of WO 2004/106279)
From the text: Such methods can be used to provide seeds of Form 2 material.

thermodynamic stability of Form 2 crystals compared with Form 1 crystals: more thermodynamically stable
Compound: O=CNc1cc([C@@H](O)CNCCc2ccc(NC[C@H](O)c3ccccc3)cc2)ccc1O [Form 2, N-{2-[4-((R)-2-hydroxy-2-phenylethylamino)phenyl]ethyl}-(R)-2-hydroxy-2-(3-formamido-4-hydroxyphenyl)ethylamine monohydrochloride]
